According to patent publication US5036097A, “Phenylbutyl nitrone compositions and methods for prevention of gastric ulceration” (Oklahoma Medical Research Foundation, priority 1990, dated 1991):

Assays:
[1] = tested on: piroxicam-induced gastric ulcers; experiment: suppression of piroxicam-induced gastric ulcers by interventions (PBN, free radical scavengers, ascorbate); assay type: in vivo, rat (male Sprague-Dawley)
Method: FIG. 2 is a graph of % control ulceration from piroxicam versus the % ulceration in the presence of free radical scavengers. The […] scavenger dimethylthiourea (DMTU, 500 mg/kg i.p.) was given 24 hours and 1 hour before piroxicam. […] The antioxidant butylated hydroxytoluene (BHT, 25 mg/kg/day i.p. in corn oil) was given for three days before and again 1 hour before piroxicam. The % control ulceration is determined by averaging the ratios of cm^2 ulceration in control stomachs from rats given piroxicam alone, and multiplying×100. +P< 0.01 compared to piroxicam alone.
Male Sprague-Dawley rats (Charles River, Wilmington, Mass.) weighing 300-325 g were housed individually in wire bottomed cages to prevent ingestion of hair and feces. Animals were maintained without food for 48 hours and without water for 24 hours prior to each experiment. Piroxicam or aspirin and other NSAIDS were suspended in a vehicle of 1% carboxymethylcellulose, 0.1% Tween 80 and 0.15 M HCl, and administered in a volume of 1 ml on the morning of study by oral gavage using an 18 gauge curved blunt needle (Popper and Sons, New Hyde Park, N.Y.). One ml of vehicle alone was administered for control experiments. HCl was added to the vehicle to insure an acid environment in the stomach in all studies. […] Four hours after the administration of NSAID or vehicle, rats were euthanized with sodium pentobarbital (100 mg/kg IP), and the surface area of ulceration per stomach was quantitated using morphometric techniques. Stomachs were removed, the lumen was exposed by an incision along the radius of greater curvature, and the stomach was washed in phosphate buffered saline. The luminal surface was laid out on a flat surface with gross folds removed by gentle distension. The percentage of surface involved with submucosal hemorrhage was then determined by point counting, as described by Weibel, E. R. Stereological Methods: Practical Methods for Biological Morphometry. Academic Press, New York 1980. This was done by tabulation of the percentage of points over ulcerations using a point counting eyepiece graticle (16×16 points in a square format). At the 12X magnification used on the Wild dissecting microscope (Wild-Heerbrugg, Basel, Switzerland), the graticle covered a 1 cm^2 area of the surface. Four to five non-overlapping sampling sites were taken to fully cover the exposed surface. To determine the total luminal surface area, the outline of the outer boundary of the stomach was traced using a transparent acetate sheet, and the area was determined from planimetry. The surface area of ulcerated regions per stomach was then determined by multiplying the surface density of ulceration regions by the luminal surface area of the stomach.
Differences in total luminal surface area in cm^2, surface area of ulcerated regions per stomach and biochemical analyses between each treatment intervention and its corresponding untreated control group are compared using the Mann-Whitney U Test, Dixon, W. J., Massey, F. J., Jr. Introduction to statistical methods, 4th edition. (New York: McGraw Hill, 1983). […] In vitro studies are compared using the Student's unpaired T-test, Dixon, W. J., Massey, F. J., Jr. Introduction to statistical methods, 4th edition. (New York: McGraw Hill, 1983). Values are expressed as mean±SEM. Significance is assumed when P<0.05.
In each experiment, the surface area of gastric ulceration produced by piroxicam in 15 treated rats was compared to that in 15 rats of the same age and size that were fasted simultaneously but which received no intervention. Phenylbutyl nitrone (30 mg/kg) was given orally in water 1 hour before piroxicam and also added to vehicle when piroxicam was administered. When intervention were given with piroxicam, the pH of the final mixture was adjusted if necessary to equal that of piroxicam and vehicle alone.

[2] = tested on: Xanthine dehydrogenase (XDH) and oxidase (XO); experiment: gastric xanthine dehydrogenase and oxidase activity; assay type: in vivo, rat; details: whole stomach, piroxicam treated
Method: MEASUREMENT OF GASTRIC XANTHINE OXIDASE ACTIVITY. Xanthine dehydrogenase (XDH) and oxidase (XO) activities are measured in whole stomach from piroxicam-treated and vehicle-treated rats, using methods reported by Parks, et. al. […]. 254 (Gastrointest Liver Physiol 17): […]-[…] (1988). The artifactual conversion of XDH to XO is minimized by quickly removing stomachs from rats that were anesthetized with 50 mg/kg sodium pentobarbital and still breathing spontaneously. After gastrectomy, the rats are euthanized by cutting the abdominal aorta. Stomachs are quickly rinsed in an ice cold homogenizing buffer consisting of 50 mM potassium phosphate buffer, pH 7.0, containing 10 mM dithiothreitol (DTT), 1 mM phenylmethylsulfonyl fluoride (PMSF) and 0.1 mM EDTA. The stomach is then immediately immersed in liquid nitrogen and ground to a fine powder under liquid nitrogen using a mortar and pestle. About 0.5 g of frozen powder is added to 5 ml of homogenizing buffer and centrifuged 40,000 g for 30 min. The supernatant is decanted and microfuged for an additional 10 min. […] To increase reaction rates activity was measured at 30 rather than 25° C. […] XO is assayed in the absence in NAD+, while XDH+XO activity is measured in the presence of 500 μM NAD+. […] The extent of XDH conversion (% XO) is calculated from XO activity divided by XDH+XO activity.

[3] = tested on: mitochondrial respiration; experiment: generation of O2- by mitochondrial respiration; assay type: biochemical, rat
[4] = tested on: microsomal lipid peroxidation; experiment: microsomal lipid peroxidation (liver microsomes); assay type: biochemical; details: 200 μM piroxicam, rat liver microsomes
Method: Studies of Microsomal Lipid Peroxidation. […] Rats are euthanized by CO2 narcosis. The livers are excised rapidly into cold isolation medium containing 0.1M sodium phosphate and 2 mM EDTA, pH 7.4. The tissue is minced and homogenized in 3 ml isolation medium per gram of tissue using a Potter-Elvehjam homogenizer. The homogenate is centrifuged at 17,800 g for 20 min., and the pellet discarded. The supernatant is recentrifuged at 100,000 g for 60 min. The resulting pellet is resuspended in isolation buffer and recentrifuged at 100,000 g for 40 min. The final pellet is resuspended in storage buffer containing 100 mM potassium phosphate, 20% glycerol, 1 mM EDTA, 1 mM DTT and 20 μM butylated hydroxytoluene, pH 7.25. This suspension is frozen under liquid nitrogen and stored at -70° CL until use. Microsomal protein is determined by a modification of the Lowry method of Anderson, M. E. Methods Enzymol 113:548-555 (1985). […] Lipid peroxidation in the 1 ml reaction mixture is measured by mixing with 2 ml TBA reagent and assaying for thiobarbituric acid reactivity by the method of Buege and Aust. Values are expressed as the increase in absorbance at 532 nm ([MUT]) per mg microsomal protein and represent the mean of three replicates.

prostaglandin synthesis = details: cited from earlier work

For `CN1C(C(=O)Nc2ccccn2)=C(O)c2ccccc2S1(=O)=O` [piroxicam], the “ulceration (ascorbate experiment)” value ([1]; ascorbate-treated stomachs (with piroxicam) vs piroxicam alone, P<0.001) was 0.031±0.009 cm^2, the ulcerations/unit area ([1]; piroxicam 23 mg/kg only, or plus PBN 30 mg/kg orally 1 hour before and with piroxicam, p<0.0052) was 0.229±0.145 ulcerations/unit area and the “XO as % of total XDH+XO activity” value [2] was 45±3%. The “total XDH+XO activity” value ([2]; vehicle 31.6±2.45 mU/g) was 30.5±1.6 mU/g, the “generation of O2- by mitochondrial respiration” value [3] was “did not increase generation of O2 -” and the “NADPH-dependent microsomal lipid peroxidation” value [4] was “no effect”. The “inhibition of prostaglandin synthesis” value (prostaglandin synthesis) was “relative weak reversible inhibitor”.
